In patent US20100216889A1, “PROLONGED EFFECT DISINFECTANT CLEANSER” (THE TRUSTEES OF COLUMBIA UNIVERSITY IN THE CITY OF, priority 2007, published 2010):

Tested on: S. aureus
Experiment: Antiseptics and combinations in soap base C, mixed one minute with S. aureus
Assay type: cell-based
Conditions: antiseptics in soap base C; for Colony counts: 0.1 ml of 10^8 cfu/ml S. aureus mixed for one minute; for Log10 reduction from Control: S. aureus, one minute, control = soap base
Protocol: To 0.9 ml of the base, 0.1 ml of 10^8 cfu/ml of S. aureus was added and mixed for one minute, after which 9.0 ml of drug inactivating media was added. The samples were mixed well and serial dilutions were made with drug inactivating media. Various dilutions were plated on TSA plates. As the control, […] of soap base was used.

## N=C(NCCCCCCNC(=N)NC(=N)Nc1ccc(Cl)cc1)NC(=N)Nc1ccc(Cl)cc1.O=C(O)[C@H](O)[C@@H](O)[C@H](O)[C@H](O)CO.O=C(O)[C@H](O)[C@@H](O)[C@H](O)[C@H](O)CO [0.2% CHG, Chlorhexidine gluconate]
  Colony counts: 4.1 × 10^6
  Log10 reduction from Control: 0.92

## Oc1cc(Cl)ccc1Oc1ccc(Cl)cc1Cl [0.5% TC, Triclosan]
  Colony counts: 4.3 × 10^6
  Log10 reduction from Control: 0.89

## CC(C)(C)CC(C)(C)c1ccc(OCCOCC[N+](C)(C)Cc2ccccc2)cc1.[Cl-] [0.18% BZT, Benzathonium chloride]
  Colony counts: 3.9 × 10^6
  Log10 reduction from Control: 0.94

## Polyhexamethylene biguanide [0.3% PHMB]
  Colony counts: 2.0 × 10^6
  Log10 reduction from Control: 1.17
